Assay results reported in PMC6667648 (Frontiers in Microbiology, 2019).
In brackets after ≈: the same amount, converted by molar mass. Where a SMILES comes first, the peptide text is derived from it. Bridges are numbered along the chain shown (N, C = ends).

What was measured:
K. pneumonia 6066 = experiment: microbe, parasite or virus in culture; format: cell-based, Klebsiella pneumoniae; conditions: 24 h
Method: (§1) Strains were obtained from American Type Culture Collection (ATCC, Manassas, VA) or the clinical isolate collection at Trideum Biosciences (Frederick, MD, USA). Bioluminescence strains of P. aeruginosa 19660, transfected with the Xen5 luciferase gene, and S. aureus ATCC® 49525™ (Wright), transfected with the Xen36 luciferase gene, were obtained from Perkin Elmer (Hopkinton, MA).
(§2) A single colony was aseptically picked from an agar overlay and released in 25–30 mL of pre-warmed trypticase soy broth in a culture flask. Each culture was incubated overnight in a 37°C incubator. […] Pathogen growth was measured by absorbance at 600 nm. Four replicas were included for each test agent concentration. […]

K. pneumonia ATCC 10031 = experiment: microbe, parasite or virus in culture; format: cell-based, Klebsiella pneumoniae; conditions: ATCC 10031, 24 h
Method: as §1, §2

K. pneumonia 6069 = experiment: microbe, parasite or virus in culture; format: cell-based, Klebsiella pneumoniae; conditions: 24 h
Method: as §1, §2

[1] = tested on: 6 hr MRSA ATCC 1556 biofilm; format: cell-based, Staphylococcus aureus; conditions: preformed (6 h) MRSA biofilm, 16 h treatment, CFU count, three technical replicates
[2] = tested on: murine L929 fibroblast cells; experiment: Fibroblast cytotoxicity, bioluminescence; format: cell-based; conditions: 64 μg/mL (maximum concentration evaluated), 24 h incubation
Method: Non-invasive real-time evaluation of viability, mammalian, and bacterial cells, was performed using bioluminescent human keratinocytes (HaCaT, AddexBio, San Diego, CA) and murine L929 fibroblast cells (ATCC, Manassas, VA). The bioluminescent variants were constructed by transfection with a luciferase gene (RediFect Red-Fluc-Puromycin, Catalog #CL596002) (Hamblin et al., [2003]). […] Each concentration was performed in triplicate. Bioluminescence imaging was performed at pre-specified times (0, 15, and 30 min and 1, 3, 5, 8, and 24 h) and compared to concurrently run vehicle-controls. The 96-well plate was positioned on the stage (12.5-cm field of view) within the in vivo Imaging System (IVIS) imaging system (Caliper Life Sciences, Inc., Hopkinton, MA, USA), with an open emission filter, binning of 4, and f-stop 1, and a 1-min exposure time. The resultant photons emitted from the live cells were quantified using Living Image® software (version 4.3, Caliper Life Sciences, Inc.). Monitoring bioluminescence allows assessment of the kinetics of cellular viability as there is a tight correlation between photon count imaging and viable counts (Kadurugamuwa et al., [2003]).

[3] = statement in discussion
P. aeruginosa ATCC 27853 = experiment: microbe, parasite or virus in culture; format: cell-based, Pseudomonas aeruginosa; conditions: P. aeruginosa ATCC 27853; 24-h incubation; mean of 3 replicates from 2 independent experiments
Method: as §1, §2

P. aeruginosa 6186 = experiment: microbe, parasite or virus in culture; format: cell-based, Pseudomonas aeruginosa; conditions: 6186, 24 h
Method: as §1, §2

P. aeruginosa ATCC 19660 = experiment: microbe, parasite or virus in culture; format: cell-based, Pseudomonas aeruginosa; conditions: P. aeruginosa ATCC 19660; 24-h incubation; mean of 3 replicates from 2 independent experiments
Method: as §1, §2

A. baumannii ATCC 17978 = experiment: microbe, parasite or virus in culture; format: cell-based, Acinetobacter baumannii; conditions: A. baumannii ATCC 17978; 24-h incubation; mean of 3 replicates from 2 independent experiments
Method: as §1, §2

A. baumannii 6838 = experiment: microbe, parasite or virus in culture; format: cell-based, Acinetobacter baumannii; conditions: 6838, 24 h
Method: as §1, §2

A. baumannii 6043 = experiment: microbe, parasite or virus in culture; format: cell-based, Acinetobacter baumannii; conditions: A. baumannii 6043; 24-h incubation; mean of 3 replicates from 2 independent experiments
Method: as §1, §2

SMILES: CC[C@H](C)[C@@H]1NC(=O)CNC(=O)[C@H](CCCCN)NC(=O)[C@H](Cc2ccc(O)cc2)NC(=O)[C@@H]2CSSC[C@H](NC1=O)C(=O)N[C@@H](Cc1ccccc1)C(=O)N[C@@H](CCCCN)C(=O)N[C@@H](CCCCN)C(=O)N[C@H](C(=O)N[C@@H](CCCCN)C(N)=O)CSSC[C@H](NC(=O)[C@H](Cc1ccccc1)NC(=O)[C@@H](N)CCCNC(=N)N)C(=O)N[C@@H](Cc1c[nH]c3ccccc13)C(=O)N[C@@H](CCCCN)C(=O)N[C@@H](C(C)C)C(=O)N2 [RP557] (H-RFCWKVCYKGICFKKCK-NH2; disulfide 3-16, 7-12)
- Minimum Inhibitory Concentration (MIC) (K. pneumonia 6066): 4.0 [8] μM
- Minimum Inhibitory Concentration (MIC) (K. pneumonia ATCC 10031): 4.0 [8] μM
- Minimum Inhibitory Concentration (MIC) (K. pneumonia 6069): 2.0 [4] μM
- EC90, biofilm CFU [1]: 6 µg/mL (≈ 2.81 µM)
- Fibroblast cell killing [2]: limited fibroblast cell killing
- Water solubility [3]: water-soluble
- Minimum Inhibitory Concentration (MIC) (P. aeruginosa ATCC 27853): 2.0 [4] μM
- Minimum Inhibitory Concentration (MIC) (P. aeruginosa 6186): 2.0 [4] μM
- Minimum Inhibitory Concentration (MIC) (P. aeruginosa ATCC 19660): 2.0 [4] μM
- Minimum Inhibitory Concentration (MIC) (A. baumannii ATCC 17978): 8.0 [16] μM
- Minimum Inhibitory Concentration (MIC) (A. baumannii 6838): 4.0 [8] μM
- Minimum Inhibitory Concentration (MIC) (A. baumannii 6043): 4.0 [8] μM
